According to patent US12653803B2, “TREM2 agonists for the stimulation of microglia and methods of identification” (THE TRANSLATIONAL GENOMICS RESEARCH INSTITUTE, priority 2017, dated 2026):
Entries after “also recorded” stand apart in the source; their conditions may differ.

Key:
TREM2/TYROBP = molecular target: T1, TREM2/TYROBP (Homo sapiens, UniProt Q9NZC2); experiment: TREM2/TYROBP/NFAT-Luc luciferase reporter cell line screen (primary screen); type: cell-based; settings: for stimulation of reporter activity in the TREM2 screening cell line: TREM2/TYROBP/NFAT-Luc cells, positive controls: sphingomyelin at increasing concentrations or 120 μg/mL, PMA (1.5 ng/mL)/Ionomycin (375 nM)
T1 construct: stably co-expressing full-length TREM2, full-length TYROBP, and a reporter (e.g., firefly luciferase) driven by NFAT-response elements; expressed in transfected cells; host or cells: BW5147.3 mouse T-lymphocyte cell line, lentiviral transduction (pTYF vectors)
T1 sequence (Q9NZC2 19-230, species assumed): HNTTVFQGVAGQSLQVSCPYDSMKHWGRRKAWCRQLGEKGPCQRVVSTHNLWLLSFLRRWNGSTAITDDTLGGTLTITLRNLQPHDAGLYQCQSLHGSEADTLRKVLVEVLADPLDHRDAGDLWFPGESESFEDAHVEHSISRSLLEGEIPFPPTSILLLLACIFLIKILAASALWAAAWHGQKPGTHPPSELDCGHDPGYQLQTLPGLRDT
T1 sequence (O43914 22-113 partner, species assumed): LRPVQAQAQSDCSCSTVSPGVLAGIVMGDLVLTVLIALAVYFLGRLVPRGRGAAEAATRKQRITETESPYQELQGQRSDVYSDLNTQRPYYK
Source text: (§1) Cell-based reporter assays were developed for identifying TREM2 agonists. A mouse T-lymphocyte cell line, BW5147.3, stably co-expressing full-length TREM2, full-length TYROBP, and a reporter (e.g., firefly luciferase) driven by NFAT-response elements, was established (FIG. 2). The parental BW5147.3 cells have no detectable expression of TREM2 or TYROBP (FIG. 4B) and can be used as a counter screen cell-line to identify false positive compounds that stimulate reporter expression independent of TREM2 and TYROBP. BW5147.3 lymphocytes play a central role in the immune system and have high viability (99-100%) in culture.
TREM2 and TYROBP geneArt double-stranded cDNA strings were synthesized (Life Technologies, Carlsbad, CA) and subcloned into pTYF lentiviral vectors to generate a pLenti expression clone. HEK293HT cells were next transfected using Superfect (Qiagen, Venlo, Netherlands), and viral particles were collected and concentrated. Stable expression of TREM2, TYROBP, and the Cignal Lenti NFAT Reporter (Luc) (Qiagen, Venlo, Netherlands) in BW5147.3 cells was accomplished by transduction in opti-MEM media (Life Technologies, Carlsbad, CA) containing 6 μg/ml Polybrene (Sigma-Aldrich, St. Louis, MO). […]
TREM2/TYROBP-NFAT-Luc cell line for HTS was optimized by testing TREM2-stimulated Luc-reporting as a function of growth medium, agonist concentration, induction time, assay duration, and cell density. […] Firefly luciferase levels were measured by chemiluminescence (Bright-Glo™, Promega, WI). […] The effect of reported TREM2 agonists to be served as positive controls were measured (FIG. 5), and the specific stimulation of our reporter through TREM2 by known ligand sphingomyelin was confirmed (FIG. 5).
The primary screening assay was conducted with a concentration of 5 μM for each of the 2,400 compounds (final 0.05% or 0.1% DMSO (v/v)) with two replicate screens with internal replicates. […] Subsequently, Luciferase activity was measured using Bright-Glo™ (Promega, Madison, WI).

NFAT reporter = experiment: BW-NFAT-Luc counter screen (NFAT reporter only, no TREM2/TYROBP); type: cell-based, mouse; settings: for stimulation of the NFAT-Luc reporter-only counter screen cell line: NFAT-Luc cells without TREM2/TYROBP, sphingomyelin (120 μg/mL in counter screen)
Source text: as §1
A counter screen cell line only expressing the Cignal Lenti NFAT Reporter (luc) was also created in parallel to the reporter (BW-NFAT-Luc cell line). The BW-NFAT-Luc cell line has the same MOI as the TREM2/TYROBP-NFAT-Luc cell line (MOI=20) but without expression of TREM2 or TYROBP.
Transmembrane signaling via TREM2 is accomplished through an ITAM-bearing trans-membrane adaptor protein, TYROBP or DAP12. TREM2 activation leads to the induction of transcription factor NFAT. Activation of TREM2 by ligands leads to the phosphorylation of TYROBP, the activation of the reporter, and quantitative production of luciferase. Previous studies using TREM2/TYROBP/NFAT reporter cell-lines have confirmed the stimulation of NFAT transcription following TREM2 activation. Compounds that directly stimulate NFAT signaling (stimulate luciferase activity in the BW-NFAT-Luc cell line) are eliminated as false positive. Thus, the counter screen with BW-NFAT-Luc cell line eliminates the false positive hits and confirms hits from TREM2/TYROBP cell lines screened.
To eliminate the false positive hits from the primary screen that might directly stimulate NFAT signaling, a counter screen was performed with the initial 27 compounds using the BW-NFAT-Luc cell line alone. […] The primary screen with the TREM2/TYROBP Luciferase reporter cell line identified Tyrphostin AG 538 as a positive hit with a relative luminescence of 16.08 (FIG. 6A). […]

| Compound | stimulation of reporter activity in the TREM2 screening cell line (TREM2/TYROBP) | stimulation of reporter activity in the TREM2 screening cell line (TREM2/TYROBP; listed as sphingomyelin) | stimulation of the NFAT-Luc reporter-only counter screen cell line (NFAT reporter) | stimulation of the NFAT-Luc reporter-only counter screen cell line (NFAT reporter; listed as SM) | relative luminescence (TREM2/TYROBP; primary screen, 5 μM, duplicates, 8 h treatment, TREM2/TYROBP/NFAT-Luc reporter cell line, relative to DMSO vehicle) | direct stimulation of the NFAT reporter in the counter screen (NFAT reporter; NFAT-Luc reporter cell line, 1.5, 3, 6 and 12.5 μM) |
| --- | --- | --- | --- | --- | --- | --- |
| Sphingomyelin | stimulates; also recorded: similarly positive results | induce reporter activity | did not show direct stimulation of the NFAT reporter | did not show any activity | – | – |
| N#C/C(=C\c1ccc(O)c(O)c1)C(=O)c1ccc(O)c(O)c1 [Tyrphostin AG 538] | – | – | – | – | 16.08 | did not stimulate the NFAT reporter directly |
